Reference: patent publication US9205070B2, “Chelation suppository for improved drug delivery” (APPLIED BIORESEARCH, INC., priority 2013, dated 2015)
Where two headings read alike, the source gives them in different places.

What was measured:
[1] = rat
Excerpt: The conclusive measure of bioavailability is to measure the drug blood levels (or levels in some other body fluid) after administration to human test subjects.
See Rabau M Y, Baratz M, Rozen P, “Na2 ethylenediaminetetraacetic acid retention enema in dogs. Biochemical and histological response”.

[2] = aqueous composition containing MBK, pH 7.0 and pH 9.6, after 5 hours
Method: Cells in the digestive track, such as CACO-2 cells are typically used to model absorption in the small intestine. CACO-2 cells, developed by the Sloan-Kettering Institute from human epithelial colorectal adenocarcinoma cells, are widely used to predict drug absorption. […] permeability assay (PAMPA) uses an artificial cell membrane to model drug permeability. In either test, the drug is dissolved in an aqueous solution mimicking the target gastric fluid. The fluid is contacted with the membrane, and the passage of the drug through the membrane over a period of time is used to assess permeability.
PAMPA measures how quickly the drug can exit a water-solvated environment and pass through a cell membrane. Since most drugs are hydrophobic, it is expected that there will be significant absorption by the cells lining the digestive tract.

[3] = dogs, aqueous solution, rectal; cited from earlier work
[4] = Group C, rectal suppository with MBK excipient, mean

SMILES	AUC ([1]; Group B, intravenous, mean)	AUC Inf ([1]; Group B, intravenous, mean)	Cmax ([1]; Group B, intravenous, mean)	Halflife ([1]; Group B, intravenous, mean)	Tmax ([1]; Group B, intravenous, mean)	AUC [1, 4]	AUC Inf [1, 4]	Cmax [1, 4]	drug absorbed ([1]; suppository with MBK as the excipient, within eight hours)	passage of drug through the artificial cell membrane [2]	absorption [3]
O=C([O-])CN(CCN(CC(=O)[O-])CC(=O)[O-])CC(=O)[O-].[Ca+2].[Na+].[Na+] [CaNa2EDTA, calcium disodium ethylenediaminetetraacetate]	1860 ng·h/mL	1910 ng·h/mL	2070 ng/mL	90 min	4.98 min	105800 ng·h/mL	307300 ng·h/mL	30600 ng/mL	over 36.3%	no drug was found to have passed through the artificial cell membrane	
O=C(O)CN(CCN(CC(=O)O)CC(=O)O)CC(=O)O [EDTA]											~13%
